Columns and labels:
[1] = molecular target: T1, human mAChR M1 (Homo sapiens, UniProt P11229); assay: mAChR M1 cell-based functional assay (calcium mobilization), PAM mode: increase in the EC20 acetylcholine response
T1 sequence (P11229 1-460): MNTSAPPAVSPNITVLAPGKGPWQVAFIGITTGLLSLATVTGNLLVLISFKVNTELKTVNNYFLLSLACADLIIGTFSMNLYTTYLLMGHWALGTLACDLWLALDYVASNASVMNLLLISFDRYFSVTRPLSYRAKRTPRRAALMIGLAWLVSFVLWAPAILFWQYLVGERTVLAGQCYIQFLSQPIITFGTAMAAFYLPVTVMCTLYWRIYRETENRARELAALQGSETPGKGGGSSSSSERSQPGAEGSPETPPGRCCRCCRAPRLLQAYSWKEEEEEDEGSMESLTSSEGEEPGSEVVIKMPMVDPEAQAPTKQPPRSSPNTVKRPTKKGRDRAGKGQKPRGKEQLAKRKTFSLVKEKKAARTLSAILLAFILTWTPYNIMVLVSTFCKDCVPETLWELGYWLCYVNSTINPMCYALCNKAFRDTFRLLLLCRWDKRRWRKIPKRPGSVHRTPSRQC
Excerpt: (§1) Chinese hamster ovary (CHO-K1) cells stably expressing rat (r)M1 were purchased from the American Type Culture Collection and cultured according to their indicated protocol. CHO cells stably expressing human (h)M2, hM3, and hM5 were described previously (Levey, et al., 1991); hM1 and hM4 cDNAs were purchased from Missouri S&T cDNA Resource; rM4 cDNA was provided by T. I. Bonner (National Institutes of Health, Bethesda, MD). rM2 and rM3 were cloned from a rat brain cDNA library and sequence verified. hM1, rM2, rM3, hM4, and rM4 cDNAs were used to stably transfect CHO-K1 cells purchased from the American Type Culture Collection using Lipofectamine2000. To make stable rM2, hM2, rM3, hM4, and rM4 cell lines for use in calcium mobilization assays, these cells also were stably transfected with a chimeric G-protein (Gqi5) (provided by B. R. Conklin, University of California, San Francisco) using Lipofectamine 2000. rM1, hM1, rM3, hM3, rM5, and hM5 cells were grown in Ham's F-12 medium containing 10% heat-inactivated fetal bovine serum (FBS), 20 mM HEPES, and 50 μg/mL G418 sulfate. rM2-Gqi5, hM2-Gqi5, and hM4-Gqi5 cells were grown in the same medium also containing 500 μg/mL Hygromycin B. Stable rM4-Gqi5 cells were grown in DMEM containing 10% heat-inactivated FBS, 20 mM HEPES, 400 μg/mL G418 sulfate, and 500 μg/mL Hygromycin B.
(§2) For high throughput measurement of agonist-evoked increases in intracellular calcium, CHO-K1 cells stably expressing muscarinic receptors were plated in growth medium lacking G418 and hygromycin at 15,000 cells/20 μL/well in Greiner 384-well black-walled, tissue culture (TC)-treated, clear-bottom plates (VWR). Cells were incubated overnight at 37° C. and 5% C02. The next day, cells were washed using an ELX 405 (BioTek) with four washes (80 μL) of assay buffer then aspirated to 20 μL. Next, 20 μL of 16 μM Fluo-4/acetoxymethyl ester (Invitrogen, Carlsbad, CA) prepared as a 2.3 mM stock in DMSO and mixed in a 1:1 ratio with 10% (w/v) Pluronic F-127 and diluted in assay buffer was added to the wells and the cell plates were incubated for 50 min at 37° C. and 5% C02. Dye was removed by washing with the ELX 405 (four 80 μL washes of assay buffer) then aspirated to 20 μL. Compound master plates were formatted in an 11 point CRC format (1:3 dilutions) in 100% DMSO with a starting concentration of 10 mM using the BRAVO liquid handler (Agilent). Test compound CRCs were then transferred to daughter plates (240 nL) using the Echo acoustic plate reformatter (Labcyte, Sunnyvale, CA) and then diluted into assay buffer (40 μL) to a 2× stock using a Thermo Fisher Combi (Thermo Fisher Scientific, Waltham, MA).
Calcium flux was measured using the Functional Drug Screening System (FDSS) 6000 (Hamamatsu Corporation, Tokyo, Japan) as an increase in the fluorescent static ratio. Compounds were applied to cells (20 μL, 2×) using the automated system of the FDSS 6000 at 4 s into the 300 s protocol and the data were collected at 1 Hz. At 144 s into the 300 s protocol, 10 μL of an EC20 concentration of the muscarinic receptor agonist acetylcholine was added (5×), followed by the addition of 12 μL of an EC80 concentration of acetylcholine at the 230 s time point (5×). Agonist activity was analyzed as a concentration-dependent increase in calcium mobilization upon compound addition. Emax values for agonist activity are expressed relative to the maximum for acetylcholine. Positive allosteric modulator activity was analyzed as a concentration-dependent increase in the EC20 acetylcholine response. Antagonist activity was analyzed as a concentration-dependent decrease in the EC80 acetylcholine response. Concentration-response curves were generated using a four-parameter logistical equation in XLfit curve fitting software (IDBS, Bridgewater, NJ) for Excel (Microsoft, Redmond, WA) or Prism (GraphPad Software, Inc., San Diego, CA). […]

[2] = molecular target: T1, human mAChR M1; assay: mAChR M1 cell-based functional assay (calcium mobilization), agonist mode: compound alone, Emax relative to acetylcholine maximum; conditions: for Agonist Activity Human M1 EC50 / EC50: human mAChR M1; for Emax: relative to the maximum for acetylcholine
Excerpt: as §1, §2
Calcium flux was measured using the Functional Drug Screening System (FDSS) 6000 (Hamamatsu Corporation, Tokyo, Japan) as an increase in the fluorescent static ratio. Compounds were applied to cells (20 μL, 2×) using the automated system of the FDSS 6000 at 4 s into the 300 s protocol and the data were collected at 1 Hz. At 144 s into the 300 s protocol, 10 μL of an EC20 concentration of the muscarinic receptor agonist acetylcholine was added (5×), followed by the addition of 12 μL of an EC80 concentration of acetylcholine at the 230 s time point (5×). Agonist activity was analyzed as a concentration-dependent increase in calcium mobilization upon compound addition. Emax values for agonist activity are expressed relative to the maximum for acetylcholine. Positive allosteric modulator activity was analyzed as a concentration-dependent increase in the EC20 acetylcholine response. Antagonist activity was analyzed as a concentration-dependent decrease in the EC80 acetylcholine response. Concentration-response curves were generated using a four-parameter logistical equation in XLfit curve fitting software (IDBS, Bridgewater, NJ) for Excel (Microsoft, Redmond, WA) or Prism (GraphPad Software, Inc., San Diego, CA).

EC50 [1] | Emax [1] | Agonist Activity Human M1 EC50 [2] | Emax [2] | EC50 [2] | Structure (SMILES)
686 nM | 71% | Inactive | 6% |  | [2H]C1([2H])c2ncccc2C(=O)N1Cc1ccc(-c2ccc3nn(C)cc3c2)cc1F [Compound 9, 6-(2-fluoro-4-(2-methyl-2H-indazol-5-yl)benzyl)-6,7-dihydro-5H-pyrrolo[3,4-b]pyridin-5-one-7,7-d2]
680 nM | 68% | Inactive | 6% |  | [2H]C1([2H])c2ncccc2C(=O)N1Cc1c(F)cc(-c2cnc3nn(C([2H])([2H])[2H])cc3c2)cc1F [Compound 115, 6-(2,6-difluoro-4-(2-(methyl-d3)-2H-pyrazolo[3,4-b]pyridin-5-yl)benzyl)-6,7-dihydro-5H-pyrrolo[3,4-b]pyridin-5-one-7,7-d2]
4170 nM | 65% | Inactive | 2% |  | [2H]C1([2H])c2ncccc2C(=O)N1Cc1ccc(-c2ccc3cncn3c2)cc1 [Compound 18, 6-(4-(imidazo[1,5-a]pyridin-6-yl)benzyl)-6,7-dihydro-5H-pyrrolo[3,4-b]pyridin-5-one-7,7-d2]
1050 nM | 58% | Inactive | 2% |  | [2H]C1([2H])c2ncccc2C(=O)N1Cc1c(F)cc(-c2cccc3nn(C([2H])([2H])[2H])c(F)c23)cc1C1CC1 [Compound 191, 6-(2-Cyclopropyl-6-fluoro-4-(3-fluoro-2-(methyl-d3)-2H-indazol-4-yl)benzyl)-6,7-dihydro-5H-pyrrolo[3,4-b]pyridin-5-one-7,7-d2]
428 nM | 63% |  | 18% | 6.07 µM | [2H]C1([2H])c2ncccc2C(=O)N1Cc1c(F)cc(-c2ccc(OC3CCOC3)c3nn(C([2H])([2H])[2H])cc23)cc1F (centres unmarked) [Compound 128, 6-(2,6-difluoro-4-(2-(methyl-d3)-7-((tetrahydrofuran-3-yl)oxy)-2H-indazol-4-yl)benzyl)-6,7-dihydro-5H-pyrrolo[3,4-b]pyridin-5-one-7,7-d2]
594 nM | 87% | Inactive | 3% |  | [2H]C1([2H])c2ncccc2C(=O)N1Cc1c(F)cc(-c2ccc(S(C)(=N)=O)c3nn(C)cc23)cc1F (centres unmarked) [Compound 182, 6-(2,6-difluoro-4-(2-methyl-7-(S-methylsulfonimidoyl)-2H-indazol-4-yl)benzyl)-6,7-dihydro-5H-pyrrolo[3,4-b]pyridin-5-one-7,7-d2]
751 nM | 75% |  | 18% | ≥ 10 µM | [2H]C1([2H])c2ncccc2C(=O)N1Cc1ccc(-c2ccc(O[C@H]3CCOC3)c3nn(C)cc23)cc1F [Compound 144, (S)-6-(2-fluoro-4-(2-methyl-7-((tetrahydrofuran-3-yl)oxy)-2H-indazol-4-yl)benzyl)-6,7-dihydro-5H-pyrrolo[3,4-b]pyridin-5-one-7,7-d2]
322 nM | 81% | Inactive | 9% |  | [2H]C1([2H])c2ncccc2C(=O)N1Cc1c(F)cc(-c2ccc(OCCOC)c3nn(C)cc23)cc1Cl [Compound 170, 6-(2-chloro-6-fluoro-4-(7-(2-methoxyethoxy)-2-methyl-2H-indazol-4-yl)benzyl)-6,7-dihydro-5H-pyrrolo[3,4-b]pyridin-5-one-7,7-d2]
1240 nM | 74% | Inactive | 2% |  | [2H]C1([2H])c2ncccc2C(=O)N1Cc1ccc(-c2cc(F)cc3nn(C)cc23)cc1C [Compound 84, 6-(4-(6-fluoro-2-methyl-2H-indazol-4-yl)-2-methylbenzyl)-6,7-dihydro-5H-pyrrolo[3,4-b]pyridin-5-one-7,7-d2]
643 nM | 80% |  | 27% | ≥ 10 µM | [2H]C1([2H])c2ncccc2C(=O)N1Cc1ccc(-c2ccc(O[C@@H](C)COC)c3nn(C)cc23)cc1F [Compound 152, (S)-6-(2-fluoro-4-(7-((1-methoxypropan-2-yl)oxy)-2-methyl-2H-indazol-4-yl)benzyl)-6,7-dihydro-5H-pyrrolo[3,4-b]pyridin-5-one-7,7-d2]
288 nM | 87% | Inactive | 4% |  | [2H]C1([2H])c2ncccc2C(=O)N1Cc1ccc(-c2ccc(OC)c3nn(C([2H])([2H])[2H])cc23)cc1C [Compound 57, 6-(4-(7-methoxy-2-(methyl-d3)-2H-indazol-4-yl)-2-methylbenzyl)-6,7-dihydro-5H-pyrrolo[3,4-b]pyridin-5-one-7,7-d2]
198 nM | 79% |  | 43% | 3.73 µM | [2H]C1([2H])c2ncccc2C(=O)N1Cc1c(C)cc(-c2ccc(OC)c3nn(C)cc23)cc1F [Compound 195, 6-(2-fluoro-4-(7-methoxy-2-methyl-2H-indazol-4-yl)-6-methylbenzyl)-6,7-dihydro-5H-pyrrolo[3,4-b]pyridin-5-one-7,7-d2]
488 nM | 85% |  | 9% | > 10 µM | [2H]C1([2H])c2ncccc2C(=O)N1Cc1ccc(-c2ccc(F)c3nn(C)cc23)cc1C [Compound 48, 6-(4-(7-fluoro-2-methyl-2H-indazol-4-yl)-2-methylbenzyl)-6,7-dihydro-5H-pyrrolo[3,4-b]pyridin-5-one-7,7-d2]

Structure (SMILES) | EC50 [1] | Emax [1] | Agonist Activity Human M1 EC50 [2] | Emax [2] | EC50 [2]
[2H]C1([2H])c2ncccc2C(=O)N1Cc1c(F)cc(-c2ccc(C)c3nn(C)cc23)cc1OCC(C)C [Compound 213, 6-(4-(2,7-dimethyl-2H-indazol-4-yl)-2-fluoro-6-isobutoxybenzyl)-6,7-dihydro-5H-pyrrolo[3,4-b]pyridin-5-one-7,7-d2] | 1520 nM | 81% | Inactive | 3% | 

Source: patent publication US20240228489A1, “POSITIVE ALLOSTERIC MODULATORS OF THE MUSCARINIC ACETYLCHOLINE RECEPTOR M1” (Vanderbilt University, priority 2021, published 2024)
